Measurements taken from patent US10800792B2, “Inhibitors of Bruton's tyrosine kinase and method of their use” (JANSSEN PHARMACEUTICA NV, priority 2015, dated 2020).

Biological target: unphosphorylated-BTK kinase domain (UP-BTK), GST-tagged human BTK (389-659aa) (Homo sapiens (Human), UniProt Q06187)
Assay: BTK kinase Lanthascreen binding assay
Conditions: unphosphorylated-BTK kinase domain, 60 minutes incubation, 50 nM Tracer 236; pIC50 = negative log of the IC50 in molar
In short: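 Values are pIC50, i.e. negative log of IC50 in molar, derived from concentration–response fitting. Each compound competes with a fluorescently labelled tracer for the unphosphorylated kinase domain.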

Chain of unphosphorylated-BTK kinase domain (UP-BTK), GST-tagged human BTK (389-659aa) (Q06187 389-659): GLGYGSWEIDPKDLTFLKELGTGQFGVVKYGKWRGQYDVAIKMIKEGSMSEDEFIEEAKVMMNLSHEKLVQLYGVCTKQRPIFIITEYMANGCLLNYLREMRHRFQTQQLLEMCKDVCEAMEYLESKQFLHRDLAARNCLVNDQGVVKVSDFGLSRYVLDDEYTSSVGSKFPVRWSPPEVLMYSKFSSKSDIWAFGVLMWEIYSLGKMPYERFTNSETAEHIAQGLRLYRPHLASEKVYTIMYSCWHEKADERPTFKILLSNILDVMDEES

Row | BTK_I_binding pIC50 | Structure (SMILES)
1 | 6.8 | CCC(=O)N1CCCC(NC(=O)c2sc3nccc4c3c2NC(=O)N4c2ccc(Oc3ccccc3)cc2C)C1 (stereo not shown) [Example 903, 5-(2-Methyl-4-phenoxyphenyl)-4-oxo-N-(1-propionylpiperidin-3-yl)-4,5-dihydro-3H-1-thia-3,5,8-triazaacenaphthylene-2-carboxamide]
2 | 6.7 | Cc1cc(Oc2ccccc2)ccc1N1C(=O)Nc2c(C(=O)N[C@H]3CCCN(C(=O)/C(C#N)=C/C(C)(C)C)C3)sc3nccc1c23 [Example 904, (S,E)-N-(1-(2-Cyano-4,4-dimethylpent-2-enoyl)piperidin-3-yl)-5-(2-methyl-4-phenoxyphenyl)-4-oxo-4,5-dihydro-3H-1-thia-3,5,8-triazaacenaphthylene-2-carboxamide]
3 | 6.7 | Cc1cc(Oc2ccccc2)ccc1N1C(=O)Nc2c(C(=O)N[C@H]3CCN(C(=O)/C(C#N)=C/C4CC4)C3)sc3nccc1c23 [Example 905, (S,E)-N-(1-(2-Cyano-3-cyclopropylacryloyl)pyrrolidin-3-yl)-5-(2-methyl-4-phenoxyphenyl)-4-oxo-4,5-dihydro-3H-1-thia-3,5,8-triazaacenaphthylene-2-carboxamide]
4 | 6.7 | COc1ccccc1Oc1ccc(N2C(=O)Nc3c(C(=O)NC4CCCN(C)C4)sc4nccc2c34)c(C)c1 (stereo not shown) [Example 907, 5-(4-(2-Methoxyphenoxy)-2-methylphenyl)-N-(1-methylpiperidin-3-yl)-4-oxo-4,5-dihydro-3H-1-thia-3,5,8-triazaacenaphthylene-2-carboxamide]
5 | 6.7 | Cc1cc(Oc2ccccc2)ccc1N1C(=O)Nc2c(C(=O)N[C@@H]3CCCN(C(=O)CN4CCC4)C3)sc3nccc1c23 [Example 908, (R)—N-(1-(2-(Azetidin-1-yl)acetyl)piperidin-3-yl)-5-(2-methyl-4-phenoxyphenyl)-4-oxo-4,5-dihydro-3H-1-thia-3,5,8-triazaacenaphthylene-2-carboxamide]
6 | 6.7 | O=C(NC1CCOCC1)c1sc2nccc3c2c1NC(=O)N3c1ccc(Oc2ccccc2)cc1 [Example 909, 4-Oxo-5-(4-phenoxyphenyl)-N-(tetrahydro-2H-pyran-4-yl)-4,5-dihydro-3H-1-thia-3,5,8-triazaacenaphthylene-2-carboxamide]
7 | 6.7 | CN1CC[C@@H](NC(=O)c2sc3nccc4c3c2NC(=O)N4c2ccc(Oc3ccccc3)cc2)C1 [Example 910, (R)—N-(1-Methylpyrrolidin-3-yl)-4-oxo-5-(4-phenoxyphenyl)-4,5-dihydro-3H-1-thia-3,5,8-triazaacenaphthylene-2-carboxamide]
8 | 6.6 | O=C(N[C@@H]1CCNC1)c1sc2nccc3c2c1NC(=O)N3c1ccc(Oc2ccccc2)cc1 [Example 911, (R)-4-Oxo-5-(4-phenoxyphenyl)-N-(pyrrolidin-3-yl)-4,5-dihydro-3H-1-thia-3,5,8-triazaacenaphthylene-2-carboxamide]
9 | 6.5 | Cc1cc(OC(C)C)ccc1N1C(=O)Nc2c(C(=O)N[C@@H]3CCCN(C(=O)/C=C/CN(C)C)C3)sc3nccc1c23 [Example 913, (R,E)-N-(1-(4-(Dimethylamino)but-2-enoyl)piperidin-3-yl)-5-(4-isopropoxy-2-methylphenyl)-4-oxo-4,5-dihydro-3H-1-thia-3,5,8-triazaacenaphthylene-2-carboxamide]
10 | 6.5 | O=C(N[C@@H]1CCN(C(=O)c2ccccc2)C1)c1sc2nccc3c2c1NC(=O)N3c1ccc(Oc2ccccc2)cc1 [Example 914, (R)—N-(1-Benzoylpyrrolidin-3-yl)-4-oxo-5-(4-phenoxyphenyl)-4,5-dihydro-3H-1-thia-3,5,8-triazaacenaphthylene-2-carboxamide]
11 | 6.5 | O=C(N[C@@H]1CCCNC1)c1sc2nccc3c2c1NC(=O)N3c1ccc(Oc2ccccc2)cn1 [Example 915, (R)-4-Oxo-5-(5-phenoxypyridin-2-yl)-N-(piperidin-3-yl)-4,5-dihydro-3H-1-thia-3,5,8-triazaacenaphthylene-2-carboxamide]
12 | 6.4 | Cc1cc(Oc2ccccc2)ccc1N1C(=O)Nc2c(C(=O)NC3CCN(C(=O)/C(C#N)=C/C4CC4)CC3)sc3nccc1c23 [Example 916, (E)-N-(1-(2-Cyano-3-cyclopropylacryloyl)piperidin-4-yl)-5-(2-methyl-4-phenoxyphenyl)-4-oxo-4,5-dihydro-3H-1-thia-3,5,8-triazaacenaphthylene-2-carboxamide]
13 | 6.4 | COc1ccccc1Oc1ccc(N2C(=O)Nc3c(C(=O)NC4CCNCC4)sc4nccc2c34)c(C)c1 [Example 917, 5-(4-(2-Methoxyphenoxy)-2-methylphenyl)-4-oxo-N-(piperidin-4-yl)-4,5-dihydro-3H-1-thia-3,5,8-triazaacenaphthylene-2-carboxamide]
14 | 6.4 | COc1ccccc1Oc1ccc(N2C(=O)Nc3c(C(=O)NC4CCN(C)CC4)sc4nccc2c34)c(C)c1 [Example 918, 5-(4-(2-Methoxyphenoxy)-2-methylphenyl)-N-(1-methylpiperidin-4-yl)-4-oxo-4,5-dihydro-3H-1-thia-3,5,8-triazaacenaphthylene-2-carboxamide]
15 | 6.4 | Cc1cc(OC2CCCC2)ccc1N1C(=O)Nc2c(C(=O)N[C@@H]3CCCNC3)sc3nccc1c23 [Example 919, (R)-5-(4-(cyclopentyloxy)-2-methylphenyl)-4-oxo-N-(piperidin-3-yl)-4,5-dihydro-3H-1-thia-3,5,8-triazaacenaphthylene-2-carboxamide]
16 | 6.4 | CN1CCC(NC(=O)c2sc3nccc4c3c2NC(=O)N4c2ccc(Oc3ccccc3)cc2)CC1 [Example 920, N-(1-Methylpiperidin-4-yl)-4-oxo-5-(4-phenoxyphenyl)-4,5-dihydro-3H-1-thia-3,5,8-triazaacenaphthylene-2-carboxamide]
17 | 6.3 | Cc1cc(Oc2ccccc2)ccc1N1C(=O)Nc2c(C(=O)NC3CCN(C(=O)/C(C#N)=C/C(C)(C)C)CC3)sc3nccc1c23 [Example 921, (E)-N-(1-(2-Cyano-4,4-dimethylpent-2-enoyl)piperidin-4-yl)-5-(2-methyl-4-phenoxyphenyl)-4-oxo-4,5-dihydro-3H-1-thia-3,5,8-triazaacenaphthylene-2-carboxamide]
18 | 6.3 | O=C(N[C@@H]1CCCNC1)c1sc2nccc3c2c1NC(=O)N3c1ccc(Oc2ccccc2)nc1 [Example 922, (R)-4-Oxo-5-(6-phenoxypyridin-3-yl)-N-(piperidin-3-yl)-4,5-dihydro-3H-1-thia-3,5,8-triazaacenaphthylene-2-carboxamide]
19 | 6.3 | CNCC(=O)N1CCC[C@@H](NC(=O)c2sc3nccc4c3c2NC(=O)N4c2ccc(OC(C)C)cc2C)C1 [Example 923, (R)-5-(4-Isopropoxy-2-methylphenyl)-N-(1-(2-(methylamino)acetyl)piperidin-3-yl)-4-oxo-4,5-dihydro-3H-1-thia-3,5,8-triazaacenaphthylene-2-carboxamide]
20 | 6.3 | CC(=O)N1CC[C@H](NC(=O)c2sc3nccc4c3c2NC(=O)N4c2ccc(Oc3ccccc3)cc2)C1 [Example 924, (S)—N-(1-Acetylpyrrolidin-3-yl)-4-oxo-5-(4-phenoxyphenyl)-4,5-dihydro-3H-1-thia-3,5,8-triazaacenaphthylene-2-carboxamide]
21 | 6.3 | O=C(N[C@@H]1CCN(Cc2ccccc2)C1)c1sc2nccc3c2c1NC(=O)N3c1ccc(Oc2ccccc2)cc1 [Example 925, (R)—N-(1-Benzylpyrrolidin-3-yl)-4-oxo-5-(4-phenoxyphenyl)-4,5-dihydro-3H-1-thia-3,5,8-triazaacenaphthylene-2-carboxamide]
22 | 6.2 | O=C(NC1CCNCC1)c1sc2nccc3c2c1NC(=O)N3c1ccc(Oc2ccccc2)cc1 [Example 926, 4-oxo-5-(4-phenoxyphenyl)-N-(piperidin-4-yl)-4,5-dihydro-3H-1-thia-3,5,8-triazaacenaphthylene-2-carboxamide]
23 | 6.2 | O=C(NCCN1CCCC1)c1sc2nccc3c2c1NC(=O)N3c1ccc(Oc2ccccc2)cc1 [Example 927, 4-Oxo-5-(4-phenoxyphenyl)-N-(2-(pyrrolidin-1-yl)ethyl)-4,5-dihydro-3H-1-thia-3,5,8-triazaacenaphthylene-2-carboxamide]
24 | 6.2 | O=C(NCCN1CCNCC1)c1sc2nccc3c2c1NC(=O)N3c1ccc(Oc2ccccc2)cc1 [Example 928, 4-Oxo-5-(4-phenoxyphenyl)-N-(2-(piperazin-1-yl)ethyl)-4,5-dihydro-3H-1-thia-3,5,8-triazaacenaphthylene-2-carboxamide]
25 | 6.1 | C=CC(=O)N1CCC(NC(=O)c2sc3nccc4c3c2NC(=O)N4c2ccc(Oc3ccccc3)cc2C)CC1 [Example 929, N-(1-Acryloylpiperidin-4-yl)-5-(2-methyl-4-phenoxyphenyl)-4-oxo-4,5-dihydro-3H-1-thia-3,5,8-triazaacenaphthylene-2-carboxamide]
26 | 6.1 | CN1CC[C@H](NC(=O)c2sc3nccc4c3c2NC(=O)N4c2ccc(Oc3ccccc3)cc2)C1 [Example 931, (S)—N-(1-Methylpyrrolidin-3-yl)-4-oxo-5-(4-phenoxyphenyl)-4,5-dihydro-3H-1-thia-3,5,8-triazaacenaphthylene-2-carboxamide]

Row | Structure (SMILES) | BTK_I_binding pIC50
27 | Cc1cc(Oc2ccccc2)ccc1N1C(=O)Nc2c(C(=O)N[C@H]3CCCNC3)sc3nccc1c23 [Example 912, (S)-5-(2-Methyl-4-phenoxyphenyl)-4-oxo-N-(piperidin-3-yl)-4,5-dihydro-3H-1-thia-3,5,8-triazaacenaphthylene-2-carboxamide] | 6.5
28 | Cc1cc(Oc2ccccc2)ccc1N1C(=O)Nc2c(C(=O)N[C@H]3CCCN(C)C3)sc3nccc1c23 [Example 930, (S)-5-(2-methyl-4-phenoxyphenyl)-N-(1-methylpiperidin-3-yl)-4-oxo-4,5-dihydro-3H-1-thia-3,5,8-triazaacenaphthylene-2-carboxamide] | 6.0
